Measured values taken from patent US11426441B2, “Composition comprising protein phosphatase 1 inhibitory peptide for treating vascular diseases” (BethphaGen Inc., priority 2016, dated 2022).

Key:
[1] = test system: SERCA2a; assay: A23187-induced SERCA2a degradation in HCSMCs; assay type: cell-based, human
Procedure: (§1) FIGS. 4a, 4b, 4c and 4d. (4a-4c) HCSMCs were pretreated with 3 μM ψPLB-SE and 15 μM MDL28170 for 1 hour, and then treated with 50 μM A23187 for 2 hours. (4a) Immunostaining was performed with antibodies against SERCA2a and SERCA2b (green). Nuclei were stained with Hoechst (blue). Representative merged images are shown. Scale bar, 50 μm. (4b) Western blot analysis was performed with cell extracts. Data are expressed as the means±SD (n=3-4; *, P<0.05). (4c) Baseline Ca^2+ concentration was measured by lonOptix calcium imaging system. (4d) RASMC were treated with ψPLB-SE or control peptide under the same conditions as described for FIG. 1B. The baseline Ca^2+ concentration was measured by lonOptix calcium imaging system (*, P<0.05).
The rat aortic smooth muscle cells (RASMCs) were isolated from the medial layer of the thoracic aorta derived from male Sprague-Dawley rats (body weight, 180-200 g) by an enzymatic reaction with collagenase (50 U/mL, Worthington) and pancreatic elastase (0.25 mg/mL, Sigma-Aldrich) for 4 hours at 37. The cells were collected and resuspended in DMEM containing 20% (v/v) fetal bovine serum. The resuspension was then plated on collagen I (Sigma-Aldrich)-coated glass coverslips and incubated at 37 in an atmosphere of 5% (v/v) CO2 and 95% (v/v) air. Human coronary smooth muscle cells (HCSMCs), pulmonary arterial endothelial cells (PAECs), and pulmonary arterial smooth muscle cells (PASMCs) were purchased from Lonza and cultured in EBM or SmBM (Lonza) supplemented with 0.5 mg/mL hEGF, […], 1 mg/mL hFGF, […] gentamicin/amphotericin-B, and 5% fetal bovine serum. All the cells were cultured at 37 in 5% (v/v) CO2 and 95% (v/v) air. RASMCs and HCSMCs were, respectively, plated at the densities of 1×10^4 cells/cm^2 and 1×10^5 cells/cm^2 for immunostaining and western blotting experiments. […]
Vascular smooth muscle cells (VSMCs) were homogenized in a minimal volume of 50 mM Tris-HCl, pH 7.4, supplemented with a broad-spectrum protease inhibitor cocktail (Calbiochem). […] The blots were scanned and quantified using LAS software.

[2] = test system: cytosolic Ca^2+ level; assay: Intracellular Ca2+ measurement in HCSMCs; assay type: cell-based, human
Procedure: as §1
The intracellular Ca^2+ level was measured in VSMCs by loading cells with 0.5 μM Fura2-AM (Molecular Probes, Eugene Oreg., USA), a Ca^2+-sensitive indicator, for 15 minutes at 37. The fluorescence was recorded using the lonOptix calcium imaging system. VSMCs were stimulated by the exposure to light emitted by a 75 W halogen lamp through either a 340 nm or 380 nm filter. The fluorescent emissions were detected between 480 nm and 520 nm by a photomultiplier tube after an initial illumination at 340 nm for 0.5 second and then at 380 nm during recording. The 340 nm excitation scan was repeated at the end of the protocol, and qualitative changes in the intracellular Ca^2+ level were inferred from the ratio of the Fura2 fluorescent intensity at both wavelengths.

[3] = test system: eNOS and Akt; assay: eNOS and Akt phosphorylation in PAECs (western blotting); assay type: cell-based; conditions: 100 nM okadaic acid
Procedure: FIGS. 16a, 16b and 16c. (16a-16b) PAECs were treated with 3 μM ψPLB-SE for 1 hour, and protein expression was quantitatively analyzed through western blotting using antibodies against Phospho-eNOS (ser1177), total eNOS, phospho-Akt (Ser473, Thr308), total Akt, and GAPDH. (16c) The pulmonary tissue lysate was subjected to immunoprecipitation using PP1 antibody to investigate the interactions of PP1 with eNOS and Akt depending on the presence or absence of the treatment with ψPLB-SE using respective antibodies therefor.
FIGS. 17a, 17b and 17c. (17a) PAECs were treated with 50 μM LY294002, a PI3K inhibitor, for 24 hours, and then treated with 3 μM ψPLB-SE for 1 hour. Protein expression was quantitatively analyzed through western blotting using antibodies against Phospho-eNOS (ser1177), total eNOS, phospho-Akt (Ser473, Thr308), total Akt, and GAPDH. (17b) PAECs were treated with 10 μM inhibitor IV, an Akt inhibitor, for 2 hours, and then treated with 3 μM ψPLB-SE for 1 hour. Protein expression was quantitatively analyzed through western blotting using antibodies against total eNOS and GAPDH. (17c) PAECs were treated with 100 nM OA, a PP1 inhibitor, for 24 hours, and then treated with 3 μM ψPLB-SE for 1 hour. Protein expression was quantitatively analyzed through western blotting using antibodies against Phospho-eNOS (ser1177), total eNOS, phospho-Akt (Ser473, Thr308), total Akt, and GAPDH.
ψPLB-SE (RAE16TIEMPQ; SEQ ID NO: 2) was derived from the PLB protein sequence surrounding the Ser16 phosphorylation site. To facilitate uptake into cells, the peptide was conjugated to the cell penetrating peptide dNP2 ([…]; SEQ ID NO: 21) or TAT (YGRKKRRQRRR; SEQ ID NO: 22). The peptides used in the present invention were PLB-SE (RAETIEMPQ; SEQ ID NO: 2) and control peptide (RASTIEMPQ; SEQ ID NO: 23). PLB-SE and cell penetrating peptide were connected by a linker peptide (GGG; SEQ ID NO: 24) The peptides (purity of 95% or higher, AnyGen, Gwangju, Korea) was resuspended in double-distilled water or physiological saline at a stock concentration of 3 mM (cells), 2.5 mg/ml (rats), or 500 μg/ml (mice). The rats were treated with 1 mg/kg peptides and mice were treated with 2 mg/kg peptides. The rat aortic smooth muscle cells (RASMCs), human coronary smooth muscle cells (HCSMCs), pulmonary arterial endothelial cells (PAECs), and pulmonary arterial smooth muscle cells (PASMCs) were treated with the peptides at a final concentration of 3 μM for 1 hour. The PI3K inhibitor LY294002 (Millipore, USA), the Akt inhibitor Inhibitor IV (Calbiochem, USA), and the PP1 inhibitor okadaic acid (Sigma Aldrich, USA), used in the experiments using pulmonary arterial endothelial cells (PAECs), were purchased. For the monocrotaline aqueous solution, the monocrotaline powder (Sigma Aldrich, USA) was dissolved in a small amount of a 1 M hydrochloric acid solution (HCL), diluted with sterilized distilled water, and adjusted to pH 7.35 by addition of sodium hydroxide (NaOH). The animals were bred and observed in the same conditions as in the control group during the experiment periods. In addition, the calcium ionophore A23187 and the calpain I and II inhibitors MDL28170 and […] were purchased from Sigma-Aldrich (St. Louis, Mo., USA).
Vascular smooth muscle cells (VSMCs) were homogenized in a minimal volume of 50 mM Tris-HCl, pH 7.4, supplemented with a broad-spectrum protease inhibitor cocktail (Calbiochem). The proteins were separated by SDS-PAGE and then transferred to polyvinylidene fluoride membranes (Schleicher & Schuell). After blocking with 5% (w/v) non-fat milk for 1 hour and washing with TBST, the membranes were incubated with antibodies against SERCA2a, SERCA2b (21st century biochemical), PCNA (abcam), GAPDH (Sigma-Aldrich), phospho-eNOS, eNOS, phospho-eIF2α, eIF2α (cell signaling), Vimentin, α-SMA, BMPR2 (Santa cruz), phospho-Akt, Akt (cell signaling), phospho-phospholamban (Merck), and Phospholamban (cell signaling). […]

[4] = test system: SERCA2a; assay: SERCA2a level and stability in RASMCs (immunostaining, western blotting); assay type: cell-based, rat; conditions: synthetic conditions, calpain inhibitor
Procedure: (§2) Rat aortic smooth muscle cells (RASMCs) were fixed in 4% (w/v) paraformaldehyde at room temperature for 10 min, washed with PBS, and then transmitted with 0.1% (v/v) Triton X-100 in PBS for 40 min. After washing and blocking with 3% (w/v) BSA in PBS, the cells were incubated overnight at room temperature with antibodies against SERCA2a (1:250), SERCA2b (1:250), and PCNA (1:50). On the following day, the cells were washed with PBS and incubated with anti-rabbit and anti-mouse IgG conjugated to Alexa Fluor 488 and 594, respectively, for 1 hour at room temperature. The cells were treated with FluoroGuard antifade reagent (Bio-Rad, Hercules, Calif., USA), and the coverslips were examined under a fluorescent microscope.
Vascular smooth muscle cells (VSMCs) were homogenized in a minimal volume of 50 mM Tris-HCl, pH 7.4, supplemented with a broad-spectrum protease inhibitor cocktail (Calbiochem). The proteins were separated by SDS-PAGE and then transferred to polyvinylidene fluoride membranes (Schleicher & Schuell). After blocking with 5% (w/v) non-fat milk for 1 hour and washing with TBST, the membranes were incubated with antibodies against SERCA2a, SERCA2b (21st century biochemical), PCNA (abcam), GAPDH (Sigma-Aldrich), phospho-eNOS, eNOS, phospho-eIF2α, eIF2α (cell signaling), Vimentin, α-SMA, BMPR2 (Santa cruz), phospho-Akt, Akt (cell signaling), phospho-phospholamban (Merck), and Phospholamban (cell signaling). The membranes were then incubated with horseradish peroxidase-conjugated secondary antibodies (Jackson ImmunoResearch, West Grove, Pa., USA) and developed using a chemiluminescent substrate (Dogen). The blots were scanned and quantified using LAS software.
RASMCs were cultured in DMEM supplemented with 0.1% (v/v) FBS (Contractile) or in DMEM supplemented with 10% (v/v) FBS (Synthetic) in the presence of 3 μM control or ψPLB-SE peptide. Cycloheximide (Sigma) was added to media to a final concentration of 5 μg/ml. Cells were harvested after 0, 3, and 5 days of incubation and their protein extracts were subjected to western blotting.

[5] = test system: rat aortic smooth muscle cells (RASMCs); assay: RASMC proliferation (PCNA immunostaining, EZ-CyTox cell viability assay); assay type: cell-based; conditions: RASMCs, synthetic conditions, calpain inhibitor
Procedure: The rat aortic smooth muscle cells (RASMCs) were isolated from the medial layer of the thoracic aorta derived from male Sprague-Dawley rats (body weight, 180-200 g) by an enzymatic reaction with collagenase (50 U/mL, Worthington) and pancreatic elastase (0.25 mg/mL, Sigma-Aldrich) for 4 hours at 37. The cells were collected and resuspended in DMEM containing 20% (v/v) fetal bovine serum. The resuspension was then plated on collagen I (Sigma-Aldrich)-coated glass coverslips and incubated at 37 in an atmosphere of 5% (v/v) CO2 and 95% (v/v) air. Human coronary smooth muscle cells (HCSMCs), pulmonary arterial endothelial cells (PAECs), and pulmonary arterial smooth muscle cells (PASMCs) were purchased from Lonza and cultured in EBM or SmBM (Lonza) supplemented with 0.5 mg/mL hEGF, […], 1 mg/mL hFGF, […] gentamicin/amphotericin-B, and 5% fetal bovine serum. All the cells were cultured at 37 in 5% (v/v) CO2 and 95% (v/v) air. RASMCs and HCSMCs were, respectively, plated at the densities of 1×10^4 cells/cm^2 and 1×10^5 cells/cm^2 for immunostaining and western blotting experiments. For RASMC and PASMC cell proliferation experiments, these cells were cultured in fetal bovine serum-free media for 3 days, and then proliferation was induced by serum addition.
as §2, with “microscope. […]” for “microscope.”

[6] = HCSMCs, 50 μM A23187 for 2 hours
[7] = HCSMCs pretreated 1 hour with 3 μM ψPLB-SE or 15 μM MDL28170, then 50 μM A23187 2 hours

Compound: CNc1ccc2oc(C[C@H]3O[C@@]4(CC[C@H]3C)O[C@H]([C@H](C)C(=O)c3ccc[nH]3)[C@H](C)C[C@H]4C)nc2c1C(=O)O [A23187]
- degradation of SERCA2a [1, 6]: evoked the degradation
- cytosolic Ca^2+ level [2, 6]: elevation

Compound: C=C1[C@@H](O)[C@@H]2O[C@]3(CC[C@H](/C=C/[C@@H](C)[C@@H]4CC(C)=C[C@@]5(O[C@H](C[C@@](C)(O)C(=O)O)CC[C@H]5O)O4)O3)CC[C@H]2O[C@@H]1[C@@H](O)C[C@H](C)[C@H]1O[C@@]2(CCCCO2)CC[C@H]1C [okadaic acid, reference compound]
- phosphorylation of Akt and eNOS [3]: increased

Compound: MDL28170 [reference compound]
- A23187 (Ca^2+)-dependent degradation of SERCA2a [1, 7]: completely blocked
- elevation of the cytosolic Ca^2+ level by A23187 [2, 7]: not
- degradation of SERCA2a (immunostaining) [4]: inhibited
- degradation of SERCA2a (western blotting) [4]: protective effect
- PCNA level [5]: decreased
